Test results as given in US20250338846A1, “COMPOSITIONS HAVING PESTICIDAL UTILITY AND PROCESSES RELATED THERETO” (CORTEVA AGRISCIENCE, LLC, priority 2022, published 2025).

Experiments:
[1] = system: Sweet Potato Whitefly (Bemisia tabaci, BEMITA); assay: Bioassay 2: Sweet Potato Whitefly, spray on cotton seedlings at crawler emergence, nymphs counted 7-9 days after treatment; format: in vivo
Procedure, shortened: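 Cotton seedlings pruned to one true leaf were colonized by adult B. tabaci for 24 h egg-laying, then sprayed once >25% crawler emergence was underway; solutions 0.001% to 0.00000001% (w/v) in acetone/water with 0.025% Tween 20. Held ~25° C; live 2-3 instar nymphs counted 7-9 days later, Abbott-corrected % control.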

[2] = system: Beet Armyworm (Spodoptera exigua, LAPHEG); assay: Bioassay 6: Beet Armyworm, artificial lepidopteran diet, live larvae after 5 days; format: in vivo; details: BAW
Description: where X=No. of live nymphs on solvent check and Y=No. of live nymphs on treated bean segments. In Table B5 the “Expected % Control” was calculated using the method described in Colby S. R., Weeds, 1967, 15, 20-22. Bioassay 6: Beet Armyworm (Spodoptera exigua, LAPHEG) (BAW), and Diamondback Moth (Plutella xylostella, PLUTMA) (DBM).
Stock solutions were prepared with Formula One as well as for each of the active ingredients individually. Test solutions were prepared from the stock solutions. Test solutions were prepared containing Formula One, the individual active ingredients, and mixtures of Formula One with each of the active ingredients. […]
The test solutions were tested against BAW and DBM using the following procedure: An artificial lepidopteran diet (Multispecies Lepidopteran Diet, Southland Products) was distributed in 128-cell bioassay trays (Frontier Agricultural Sciences™). […] After 5 days, the number of live larvae were recorded from each cell and percent control was measured using Abbott's correction formula (W. S. Abbott, J. Econ. Entomol. 18 (1925), pp. 265-267) as follows:
where X=No. of live larvae on solvent check and Y=No. of live larvae on treated diet. In Table B6 the “Expected % Control” was calculated using the method described in Colby S. R., Weeds, 1967, 15, 20-22. […]

| Compound | Average % Control AI ([1]; AI alone 1 (10-5) % w/v) [%] | Average % Control AI ([1]; AI alone 0.1 (10-5) % w/v) [%] | further results |
| --- | --- | --- | --- |
| Cc1c(COC(=O)[C@@H]2[C@H](/C=C(\Cl)C(F)(F)F)C2(C)C)cccc1-c1ccccc1 (racemic) [Bifenthrin] | 40 |  |  |
| CC1(C)[C@H](C(=O)O[C@H](C#N)c2cccc(Oc3ccccc3)c2)[C@@H]1/C=C(\Cl)C(F)(F)F (racemic) [Lambda Cyhalothrin] | 27 |  |  |
| C/C(=N\C#N)N(C)Cc1ccc(Cl)nc1 [Acetamiprid] | 29 |  |  |
| CCN(C(=O)CCS(C)(=O)=O)c1sc(-c2cccnc2)nc1Cl [Formula F1, N-(4-chloro-2-(pyridin-3-yl)thiazol-5-yl)-N-ethyl-3-(methylsulfonyl)propanamide] |  |  | Average % Control F1 ([2]; F1 alone 0.4 % w/v): 0% |
| Abamectin |  | 16 | Average % Control AI ([2]; AI alone, Ratio F1:AI 100:1): 50% |
| Emamectin Benzoate | 5 | 0 |  |
